# Assay results taken from patent publication US20240158446A1, “CYCLIC COMPOUND HAVING SELECTIVE INHIBITORY ACTION ON KRAS OVER HRAS AND NRAS” (CHUGAI SEIYAKU KABUSHIKI KAISHA, priority 2021, published 2024).
# pKd: −log10 of the molar value. Like-named read-outs stand apart in the source and are kept apart here. *1 amine or outer side, *2 acyl side, *3 side chain or, on linkers, in order; H or OH if unused. Where a SMILES comes first, the peptide text is derived from it. Bridges are numbered along the chain shown (N, C = ends). [ ]: non-standard residue; d: D form. The star is where a group is joined. hPhe(3-Cl-4-CF3) = N[C@@H](CCc1ccc(C(F)(F)F)c(Cl)c1)C(=O)O; X40 = CC(C)CN([C@@H](Cc1ccc(C(F)(F)F)cc1)C(=O)[*:2])[*:1]; NPrPhe(4-CF3) = CCCN[C@@H](Cc1ccc(C(F)(F)F)cc1)C(=O)O; NMeGly(cPent) = CN[C@H](C(=O)O)C1CCCC1; Pro(4,4-F2) = O=C(O)[C@@H]1CC(F)(F)CN1; NMeD = CN[C@@H](CC(=O)O)C(=O)O; NMeL = CN[C@@H](CC(C)C)C(=O)O; Morpholide = C1CN(*)CCO1; Ac5c = NC1(C(=O)O)CCCC1; Ac4c = NC1(C(=O)O)CCC1; Sar = CNCC(=O)O
# Experiments:
# [1] = target: GDP-bound HRAS wild-type protein (Homo sapiens, UniProt P01112); assay: Binding to HRAS by surface plasmon resonance (SPR), Single Cycle Kinetics; details: for HRAS/KRAS (ratio of KD value for HRAS to KD value for KRAS) / HRAS/KRAS (ratio of KD value with respect to HRAS to KD value with respect to KRAS): GDP-bound HRAS wild-type protein vs GDP-bound KRAS wild-type protein
# Chain of GDP-bound HRAS wild-type protein (P01112 whole entry): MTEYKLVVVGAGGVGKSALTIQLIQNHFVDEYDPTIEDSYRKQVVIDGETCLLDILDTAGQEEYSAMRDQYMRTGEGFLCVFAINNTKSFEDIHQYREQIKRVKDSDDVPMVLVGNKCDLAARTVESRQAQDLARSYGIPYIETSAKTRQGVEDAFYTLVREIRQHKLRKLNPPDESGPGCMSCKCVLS
# [2] = target: GDP-bound KRAS wild-type protein (Homo sapiens, UniProt P01116); assay: Binding to KRAS by surface plasmon resonance (SPR), Single Cycle Kinetics; details: GDP-bound KRAS wild-type protein, read-out: KRAS KD
# Chain of GDP-bound KRAS wild-type protein (P01116 whole entry): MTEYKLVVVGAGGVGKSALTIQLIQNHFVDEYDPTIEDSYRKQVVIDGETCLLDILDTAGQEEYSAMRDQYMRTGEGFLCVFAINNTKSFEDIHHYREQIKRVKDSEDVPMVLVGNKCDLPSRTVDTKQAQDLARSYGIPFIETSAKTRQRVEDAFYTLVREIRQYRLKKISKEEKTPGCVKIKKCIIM
# [3] = target: GDP-bound NRAS wild-type protein (Homo sapiens, UniProt P01111); assay: Binding to NRAS by surface plasmon resonance (SPR), Single Cycle Kinetics; details: for NRAS/KRAS (ratio of KD value for NRAS to KD value for KRAS) / NRAS/KRAS (ratio of KD value with respect to NRAS to KD value with respect to KRAS): GDP-bound NRAS wild-type protein vs GDP-bound KRAS wild-type protein
# Chain of GDP-bound NRAS wild-type protein (P01111 whole entry): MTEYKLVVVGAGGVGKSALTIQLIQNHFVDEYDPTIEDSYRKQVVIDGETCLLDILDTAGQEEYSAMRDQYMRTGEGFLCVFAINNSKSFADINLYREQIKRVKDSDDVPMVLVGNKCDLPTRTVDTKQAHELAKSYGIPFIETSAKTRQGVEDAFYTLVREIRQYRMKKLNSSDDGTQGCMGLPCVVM
# [4] = SPR Single Cycle Kinetics, 1:1 binding model
Structure (SMILES),"pKd ([2]; SPR, Single Cycle Kinetics)","pKd [2, 4]",HRAS/KRAS (ratio of KD value for HRAS to KD value for KRAS) ([1]; SPR),NRAS/KRAS (ratio of KD value for NRAS to KD value for KRAS) ([3]; SPR),other results
CCO[C@@H]1C[C@H]2C(=O)NC3(CCC3)C(=O)N(C)[C@@H](C3CCCC3)C(=O)N(C)[C@H](C(=O)N3CCOCC3)CC(=O)N(C)[C@@H](CC)C(=O)N[C@@H]([C@@H](C)CC)C(=O)N3CC[C@H]3C(=O)N(C)[C@H]3CC(C)=CCN(C3=O)[C@@H](Cc3ccc(C(F)(F)F)cc3)C(=O)N(C)CC(=O)N[C@@H](CCc3cc(F)c(C(F)(F)F)c(F)c3)C(=O)N2C1 [PP1042],8.89,–,C (A compound having a KD ratio of 0.1 or more and less than 3 is denoted as C),C (A compound having a KD ratio of 0.1 or more and less than 3 is denoted as C),–
"CCCN1C(=O)CN(C)C(=O)CN(C)C(=O)[C@H]([C@@H](C)CC)NC(=O)[C@H](CC(C)C)N(C)C(=O)C[C@@H](C(=O)N2CCOCC2)N(C)C(=O)[C@H](C2CCCC2)N(C)C(=O)C2(CCCC2)NC(=O)[C@@H]2CC(F)(F)CN2C(=O)[C@H](CCc2ccc(C(F)(F)F)c(Cl)c2)NC(=O)CN(C)C(=O)[C@@H]1Cc1ccc(C(F)(F)F)cc1 [PP0195] ([NMeL]I[Sar][Sar][NPrPhe(4-CF3)][Sar][hPhe(3-Cl-4-CF3)][Pro(4,4-F2)][Ac5c][NMeGly(cPent)][NMeD]-Morpholide; lactam N-11)",–,10.04,C (A compound having a KD ratio of 0.1 or more and less than 3 is denoted as C),B (a compound having 3 or more and less than 10 is denoted as B),–
CC[C@H](C)[C@@H]1NC(=O)[C@H](CC)N(C)C(=O)C[C@@H](C(=O)N(C)C)N(CC)C(=O)[C@H](C2CCCC2)N(C)C(=O)C2(CCC2)NC(=O)[C@@H]2CCCCN2C(=O)[C@H](CCc2cc(F)c(C(F)(F)F)c(F)c2)NC(=O)CN(C)C(=O)[C@H](Cc2ccc(C(F)(F)F)cc2)N2CCCC[C@@H](C2=O)N(C)C(=O)CN(C)C1=O [PP0661],–,9.47,–,–,HRAS/KRAS (ratio of KD value with respect to HRAS to KD value with respect to KRAS) ([1]; SPR): B (a compound having 3 or more and less than 10 is denoted as B); NRAS/KRAS (ratio of KD value with respect to NRAS to KD value with respect to KRAS) ([3]; SPR): C (A compound having a KD ratio of 0.1 or more and less than 3 is denoted as C)
"CCCN1C(=O)CN(C)C(=O)CNC(=O)[C@H]([C@@H](C)CC)NC(=O)[C@H](CC(C)C)N(C)C(=O)C[C@@H](C(=O)N(C)C)NC(=O)[C@H](C2CCCC2)N(C)C(=O)C2(CCC2)NC(=O)[C@@H]2CC(F)(F)CN2C(=O)[C@H](CCc2ccc(C(F)(F)F)c(Cl)c2)NC(=O)CN(C)C(=O)[C@@H]1Cc1ccc(C(F)(F)F)cc1 [PP0364] ([NMeL]IG[Sar][NPrPhe(4-CF3)][Sar][hPhe(3-Cl-4-CF3)][Pro(4,4-F2)][Ac4c][NMeGly(cPent)]D-NMe2; lactam N-11)",–,9.11,B (a compound having 3 or more and less than 10 is denoted as B),B (a compound having 3 or more and less than 10 is denoted as B),–
CCO[C@@H]1C[C@H]2C(=O)NC3(CCCC3)C(=O)N(C)[C@@H](C3CCCC3)C(=O)N(C)[C@H](C(=O)N3CCOCC3)CC(=O)N(C)[C@@H](CC)C(=O)N[C@@H]([C@@H](C)CC)C(=O)N(C)CC(=O)N(C)[C@H]3C[C@H](C)C(C)CN(C3=O)[C@@H](Cc3ccc(C(F)(F)F)cc3)C(=O)N(C)CC(=O)N[C@@H](CCc3cc(F)c(C(F)(F)F)c(F)c3)C(=O)N2C1 (stereo partly drawn) [PP1348],–,–,–,–,"HRAS/KRAS (ratio of KD value for HRAS to KD value for KRAS) ([1]; SPR, KD ratio class): B (a compound having 3 or more and less than 10 is denoted as B); pKd ([2]; SPR, Single Cycle Kinetics, 1:1 binding model): 10.12; NRAS/KRAS (ratio of KD value for NRAS to KD value for KRAS) ([3]; SPR, KD ratio class): B (a compound having 3 or more and less than 10 is denoted as B)"
CC[C@H](C)[C@@H]1NC(=O)[C@H](CC(C)C)N(C)C(=O)C[C@@H](C(=O)N2CCOCC2)N(C)C(=O)[C@H](C2CCCC2)N(C)C(=O)C2(CCCC2)NC(=O)[C@@H]2CCCN2C(=O)[C@H](CCc2ccc(C(F)(F)F)c(Cl)c2)NC(=O)CN(C)C(=O)[C@H](Cc2ccc(C(F)(F)F)cc2)N(CC(C)C)C(=O)CN(C)C(=O)CN(C)C1=O [PP0121] ([NMeL]I[Sar][Sar][X40][Sar][hPhe(3-Cl-4-CF3)]P[Ac5c][NMeGly(cPent)][NMeD]-Morpholide; lactam N-11),–,8.68,C (A compound having a KD ratio of 0.1 or more and less than 3 is denoted as C),C (A compound having a KD ratio of 0.1 or more and less than 3 is denoted as C),–
CCO[C@@H]1C[C@H]2C(=O)NC3(CCC3)C(=O)N(C)[C@@H](C3CCCC3)C(=O)N(C)[C@H](C(=O)N(C)C)CC(=O)N(C)[C@@H](COC)C(=O)N[C@@H]([C@@H](C)CC)C(=O)N(C)CC(=O)N(C)[C@H]3CCCCN(C3=O)[C@@H](Cc3ccc(C(F)(F)F)cc3)C(=O)N(C)CC(=O)N[C@@H](CCc3cc(F)c(C(F)(F)F)c(F)c3)C(=O)N2C1 [PP0704],–,10.96,–,–,HRAS/KRAS (ratio of KD value with respect to HRAS to KD value with respect to KRAS) ([1]; SPR): C (A compound having a KD ratio of 0.1 or more and less than 3 is denoted as C); NRAS/KRAS (ratio of KD value with respect to NRAS to KD value with respect to KRAS) ([3]; SPR): C (A compound having a KD ratio of 0.1 or more and less than 3 is denoted as C)

# Continued, in another order:
"pKd ([2]; SPR, Single Cycle Kinetics)","pKd [2, 4]",Structure (SMILES),HRAS/KRAS (ratio of KD value for HRAS to KD value for KRAS) ([1]; SPR),NRAS/KRAS (ratio of KD value for NRAS to KD value for KRAS) ([3]; SPR),other results
–,8.74,CCC(CC)[C@H]1C(=O)N(C)[C@H](C(=O)N(C)C)CC(=O)N(C)[C@@H](COC)C(=O)N[C@@H]([C@@H](C)CC)C(=O)N(C)CC(=O)N(C)[C@H]2C/C=C\CCN(C2=O)[C@@H](Cc2ccc(C(F)(F)F)cc2)C(=O)N(C)CC(=O)N[C@@H](CCc2cc(F)c(C(F)(F)F)c(F)c2)C(=O)N2CC[C@H]2C(=O)NC2(CC(C)(C)C2)C(=O)N1C [PP2918],–,–,"HRAS/KRAS (ratio of KD value with respect to GDP-bound HRAS wild-type protein to KD value with respect to KRAS) ([1]; SPR KD ratio HRAS/KRAS, class symbols): A (a compound having 10 or more and less than 20 is denoted as A); NRAS/KRAS (ratio of KD value with respect to GDP-bound NRAS wild-type protein to KD value with respect to KRAS) ([3]; SPR KD ratio NRAS/KRAS, class symbols): AA (a compound having 20 or more is denoted as AA)"
10.27,–,"CCO[C@@H]1C[C@H]2C(=O)NC3(CC(C)(C)C3)C(=O)N(C)[C@@H](C3CCCC3)C(=O)N(C)[C@H](C(=O)N(C)CC)CC(=O)N(C)[C@H]3CCCC/C=C/c4ccc(cc4)C[C@@H](C(=O)N(C)CC(=O)N[C@@H](CCc4ccc(C(F)(F)F)c(OC)c4)C(=O)N2C1)N1CC/C=C\C[C@@H](C1=O)N(C)C(=O)CN(C)C(=O)[C@H]([C@@H](C)CC)NC3=O [PP1830, (1S,7S,11R,13S,19S,22S,26S,29S,35S,37Z,47E)-19-cyclopentyl-11-ethoxy-N-ethyl-7-[2-[3-methoxy-4-(trifluoromethyl)phenyl]ethyl]-N,3,3′,3′,18,21,25,31,34-nonamethyl-29-[(1S)-1-methylpropyl]-2,5,8,14,17,20,24,27,30,33,55-undecaoxo-spiro[3,6,9,15,18,21,25,28,31,34,41-undecazapentacyclo[24.15.11.2^43,46.1^35,41.0^9,13]pentapentaconta-37,43(54),44,46(53),47-pentaene-16,1′-cyclobutane]-22-carboxamide]",–,–,"HRAS/KRAS (KD ratio) ([1]; ratio of KD for GDP-bound HRAS wild-type protein to KD for KRAS, SPR): B (a compound having 3 or more and less than 10 is denoted as B); NRAS/KRAS (KD ratio) ([3]; ratio of KD for GDP-bound NRAS wild-type protein to KD for KRAS, SPR): A (a compound having 10 or more and less than 20 is denoted as A)"
9.72,–,CCC[C@H]1C(=O)N[C@@H](C2CCCC2)C(=O)N(C)CC(=O)N(C)[C@H]2C/C=C\CCN(C2=O)[C@@H](Cc2ccc(C(F)(F)F)cc2)C(=O)N(C)CC(=O)N[C@@H](CCc2ccc(C(F)(F)F)c(Cl)c2)C(=O)N2C[C@H](OCC)C[C@H]2C(=O)NC2(CC(C)(C)C2)C(=O)N(C)[C@@H](CC(C)(C)C)C(=O)N(C)[C@H](C(=O)N(C)C)CC(=O)N1C [PP2971],A (a compound having 10 or more and less than 20 is denoted as A),A (a compound having 10 or more and less than 20 is denoted as A),–
9.64,–,CCCO[C@@H]1C[C@H]2C(=O)NC3(CC(C)(C)C3)C(=O)N(C)[C@@H](C3CCCC3)C(=O)N(C)[C@H](C(=O)N3CCCC3)CC(=O)N(C)[C@H]3CCCc4ccc(cc4)C[C@@H](C(=O)N(C)CC(=O)N[C@@H](CCc4ccc(C(F)(F)F)c(OC)c4)C(=O)N2C1)N1CC/C=C\C[C@@H](C1=O)N(C)C(=O)CN(C)C(=O)[C@H]([C@@H](C)CC)NC3=O [PP3065],B (a compound having 3 or more and less than 10 is denoted as B),A (a compound having 10 or more and less than 20 is denoted as A),–
9.92,–,CCO[C@@H]1C[C@H]2C(=O)NC3(CC(C)(C)C3)C(=O)N(C)[C@@H](C3CCCC3)C(=O)N(C)[C@H](C(=O)N(C)C)CC(=O)N(C)[C@H]3CCCCCCc4ccc(cc4)C[C@@H](C(=O)N(C)CC(=O)N[C@@H](CCc4ccc(Cl)c(Cl)c4)C(=O)N2C1)N1CC/C=C\C[C@@H](C1=O)N(C)C(=O)CN(C)C(=O)[C@H]([C@@H](C)CC)NC3=O [PP3071],B (a compound having 3 or more and less than 10 is denoted as B),A (a compound having 10 or more and less than 20 is denoted as A),–
9.31,–,CCC[C@@H]1C[C@H]2C(=O)NC3(CCCC3)C(=O)N(C)[C@@H](C3CCCC3)C(=O)N(C)[C@H](C(=O)N(C)CC)CC(=O)N(C)[C@@H](C)C(=O)N[C@@H]([C@@H](C)CC)C(=O)N(C)CC(=O)N(C)[C@H]3C/C=C\CCN(C3=O)[C@@H](Cc3ccc(C(F)(F)F)cc3)C(=O)N(C)CC(=O)N[C@@H](CCc3cc(F)c(C(F)(F)F)c(F)c3)C(=O)N2C1 [PP2272],A (a compound having 10 or more and less than 20 is denoted as A),AA (a compound having 20 or more is denoted as AA),–
